Columns and labels:
lipoamide = compound: NC(=O)CCCCC1CCSS1 [lipoamide]; assay: thermal stability z-score vs DMSO; higher = more thermally stabilized by treatment; conditions: HeLa, lipoamide concentration 100 µM
Description: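 Cellular thermal proteome profiling in HeLa cells. Cells were treated with 100 µM lipoamide for 1 h, with or without 1 mM arsenate for a further 1 h, then heated to ten temperatures (37-66.3 °C), and soluble protein was quantified by TMT mass spectrometry relative to 0.1% DMSO controls. The thermal stability score (sum of log2 fold changes minus the abundance score) was transformed to a z-score; mean of n = 3 experiments.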

potassium arsenate = compound: O=[As]([O-])(O)O.[K+] [potassium arsenate]; assay: as above; conditions: HeLa; arsenate concentration 1 mM
Description: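 Cellular thermal proteome profiling in HeLa cells treated with 1 mM arsenate for 1 h (DMSO pretreatment), heated to ten temperatures (37-66.3 °C). Soluble protein was quantified by TMT mass spectrometry relative to DMSO controls; the thermal stability score was transformed to a z-score; mean of n = 3 experiments.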

[1] = arsenate co-treatment: 1 mM arsenate 1 h
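Also: each temperature applied for 3 min, abundance score taken as mean log2 fold change at the two lowest temperatures, z-score obtained by mean subtraction and division by SD.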

Sequence of UniProt P67812 (P67812 whole entry): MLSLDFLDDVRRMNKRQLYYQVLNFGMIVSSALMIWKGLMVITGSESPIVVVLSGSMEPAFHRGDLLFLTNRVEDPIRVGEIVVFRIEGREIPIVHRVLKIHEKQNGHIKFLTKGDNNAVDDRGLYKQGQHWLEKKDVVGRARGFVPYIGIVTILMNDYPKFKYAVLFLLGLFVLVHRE
Sequence of UniProt Q96EE3 (Q96EE3 whole entry): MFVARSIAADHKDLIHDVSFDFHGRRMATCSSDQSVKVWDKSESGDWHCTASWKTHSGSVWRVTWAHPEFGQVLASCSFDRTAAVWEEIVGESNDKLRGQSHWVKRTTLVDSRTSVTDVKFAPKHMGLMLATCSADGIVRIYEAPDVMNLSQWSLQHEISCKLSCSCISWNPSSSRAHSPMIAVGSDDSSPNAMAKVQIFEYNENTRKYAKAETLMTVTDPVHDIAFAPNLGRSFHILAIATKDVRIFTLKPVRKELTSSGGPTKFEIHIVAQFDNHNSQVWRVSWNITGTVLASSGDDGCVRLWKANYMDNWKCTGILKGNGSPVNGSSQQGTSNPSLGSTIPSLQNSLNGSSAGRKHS
Sequence of UniProt P21912 (P21912 whole entry): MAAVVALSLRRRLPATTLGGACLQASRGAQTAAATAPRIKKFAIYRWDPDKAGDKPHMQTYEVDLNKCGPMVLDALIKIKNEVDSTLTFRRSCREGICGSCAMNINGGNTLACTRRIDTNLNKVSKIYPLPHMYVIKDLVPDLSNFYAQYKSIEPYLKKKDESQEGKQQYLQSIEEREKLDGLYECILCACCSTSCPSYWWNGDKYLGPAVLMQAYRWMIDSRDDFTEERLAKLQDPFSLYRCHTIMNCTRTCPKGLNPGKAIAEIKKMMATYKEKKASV
Sequence of UniProt Q8NC51 (Q8NC51 whole entry): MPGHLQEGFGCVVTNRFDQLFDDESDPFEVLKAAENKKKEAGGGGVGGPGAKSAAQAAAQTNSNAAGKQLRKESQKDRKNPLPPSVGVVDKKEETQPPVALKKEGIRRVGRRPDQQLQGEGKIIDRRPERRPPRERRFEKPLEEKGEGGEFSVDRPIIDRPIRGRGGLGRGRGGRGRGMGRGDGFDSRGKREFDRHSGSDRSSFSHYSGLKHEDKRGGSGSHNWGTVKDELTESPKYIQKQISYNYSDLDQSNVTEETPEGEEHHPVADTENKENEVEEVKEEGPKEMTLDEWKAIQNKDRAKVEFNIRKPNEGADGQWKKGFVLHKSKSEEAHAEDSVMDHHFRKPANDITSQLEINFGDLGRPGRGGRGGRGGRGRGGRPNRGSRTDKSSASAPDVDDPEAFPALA
Sequence of UniProt P58004 (P58004 whole entry): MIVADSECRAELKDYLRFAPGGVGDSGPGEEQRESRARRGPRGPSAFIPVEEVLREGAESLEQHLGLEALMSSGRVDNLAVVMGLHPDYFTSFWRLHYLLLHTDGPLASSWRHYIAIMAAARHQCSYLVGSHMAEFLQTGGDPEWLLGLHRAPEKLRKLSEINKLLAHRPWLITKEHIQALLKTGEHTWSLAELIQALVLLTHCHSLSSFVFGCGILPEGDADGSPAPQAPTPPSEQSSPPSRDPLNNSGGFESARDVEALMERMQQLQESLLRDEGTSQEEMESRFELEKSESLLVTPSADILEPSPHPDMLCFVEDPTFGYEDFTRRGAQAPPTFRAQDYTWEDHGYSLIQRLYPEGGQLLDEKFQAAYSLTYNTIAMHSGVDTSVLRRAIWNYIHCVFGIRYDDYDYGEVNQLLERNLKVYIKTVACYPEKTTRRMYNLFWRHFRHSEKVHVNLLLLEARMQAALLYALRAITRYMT
Sequence of UniProt Q01105 (Q01105 whole entry): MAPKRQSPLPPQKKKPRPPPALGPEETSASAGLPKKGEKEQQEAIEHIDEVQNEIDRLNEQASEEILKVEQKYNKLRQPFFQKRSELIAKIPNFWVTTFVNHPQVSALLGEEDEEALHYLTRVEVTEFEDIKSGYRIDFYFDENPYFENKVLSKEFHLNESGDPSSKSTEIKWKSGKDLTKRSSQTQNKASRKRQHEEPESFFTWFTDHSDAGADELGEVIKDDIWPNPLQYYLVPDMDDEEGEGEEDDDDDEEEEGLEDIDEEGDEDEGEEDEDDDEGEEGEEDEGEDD
Sequence of UniProt Q96GA7 (Q96GA7 whole entry): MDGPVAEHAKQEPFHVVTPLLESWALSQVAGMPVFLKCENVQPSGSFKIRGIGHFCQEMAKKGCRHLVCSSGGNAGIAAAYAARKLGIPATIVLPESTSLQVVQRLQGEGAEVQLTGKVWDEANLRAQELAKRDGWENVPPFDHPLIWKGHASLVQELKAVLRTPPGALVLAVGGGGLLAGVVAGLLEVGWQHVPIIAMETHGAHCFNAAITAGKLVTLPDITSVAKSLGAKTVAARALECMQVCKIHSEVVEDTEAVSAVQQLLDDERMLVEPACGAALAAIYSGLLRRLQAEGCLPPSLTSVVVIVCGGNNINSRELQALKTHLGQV
Sequence of UniProt Q13530 (Q13530 whole entry): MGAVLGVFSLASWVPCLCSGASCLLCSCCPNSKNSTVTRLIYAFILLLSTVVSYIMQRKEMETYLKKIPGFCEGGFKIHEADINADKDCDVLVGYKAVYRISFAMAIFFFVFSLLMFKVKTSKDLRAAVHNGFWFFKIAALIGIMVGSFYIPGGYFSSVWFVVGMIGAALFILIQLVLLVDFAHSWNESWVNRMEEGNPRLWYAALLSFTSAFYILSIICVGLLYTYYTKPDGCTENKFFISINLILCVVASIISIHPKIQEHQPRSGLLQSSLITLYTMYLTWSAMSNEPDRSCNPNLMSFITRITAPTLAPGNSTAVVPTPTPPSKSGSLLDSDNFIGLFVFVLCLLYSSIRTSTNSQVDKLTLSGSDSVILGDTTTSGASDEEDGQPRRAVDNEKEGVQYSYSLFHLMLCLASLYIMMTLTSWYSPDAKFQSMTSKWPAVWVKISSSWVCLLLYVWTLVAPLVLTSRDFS
Sequence of UniProt Q9BVL4 (Q9BVL4 whole entry): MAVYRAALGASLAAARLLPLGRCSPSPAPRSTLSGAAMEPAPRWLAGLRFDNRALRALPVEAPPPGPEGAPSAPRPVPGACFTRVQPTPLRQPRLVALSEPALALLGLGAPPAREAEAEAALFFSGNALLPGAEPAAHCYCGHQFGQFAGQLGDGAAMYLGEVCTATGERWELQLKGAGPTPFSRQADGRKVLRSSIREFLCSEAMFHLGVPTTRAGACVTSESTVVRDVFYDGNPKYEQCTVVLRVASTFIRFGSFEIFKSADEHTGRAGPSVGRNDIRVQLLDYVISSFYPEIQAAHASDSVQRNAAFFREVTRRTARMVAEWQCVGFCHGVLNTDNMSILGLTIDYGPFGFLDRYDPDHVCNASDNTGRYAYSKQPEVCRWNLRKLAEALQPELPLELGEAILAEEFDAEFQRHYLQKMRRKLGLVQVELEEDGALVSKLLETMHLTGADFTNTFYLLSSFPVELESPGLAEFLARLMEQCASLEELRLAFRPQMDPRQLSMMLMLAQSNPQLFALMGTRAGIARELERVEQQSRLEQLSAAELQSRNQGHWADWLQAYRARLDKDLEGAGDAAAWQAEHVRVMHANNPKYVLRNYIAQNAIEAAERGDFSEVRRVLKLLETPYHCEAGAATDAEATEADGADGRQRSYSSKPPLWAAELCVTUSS
Sequence of UniProt Q92503 (Q92503 whole entry): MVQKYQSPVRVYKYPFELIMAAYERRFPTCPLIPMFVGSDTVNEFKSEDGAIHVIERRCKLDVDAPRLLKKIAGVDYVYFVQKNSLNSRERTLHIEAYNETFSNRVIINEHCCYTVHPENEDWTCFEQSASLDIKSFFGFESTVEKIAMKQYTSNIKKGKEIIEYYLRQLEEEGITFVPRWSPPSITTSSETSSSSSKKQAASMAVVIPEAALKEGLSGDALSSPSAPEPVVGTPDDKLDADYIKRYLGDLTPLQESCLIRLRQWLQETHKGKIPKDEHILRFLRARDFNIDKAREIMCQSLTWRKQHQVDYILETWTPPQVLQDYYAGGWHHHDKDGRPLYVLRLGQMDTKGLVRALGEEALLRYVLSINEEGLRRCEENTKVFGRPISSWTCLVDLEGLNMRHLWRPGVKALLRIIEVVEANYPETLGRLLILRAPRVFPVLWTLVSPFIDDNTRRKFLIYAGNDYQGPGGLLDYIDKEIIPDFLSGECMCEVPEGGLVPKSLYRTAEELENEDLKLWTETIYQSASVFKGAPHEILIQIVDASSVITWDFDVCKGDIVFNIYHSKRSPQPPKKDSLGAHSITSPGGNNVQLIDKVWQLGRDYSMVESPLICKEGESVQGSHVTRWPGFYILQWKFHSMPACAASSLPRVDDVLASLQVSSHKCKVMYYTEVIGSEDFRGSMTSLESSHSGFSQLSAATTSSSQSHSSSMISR
Sequence of UniProt Q15437 (Q15437 whole entry): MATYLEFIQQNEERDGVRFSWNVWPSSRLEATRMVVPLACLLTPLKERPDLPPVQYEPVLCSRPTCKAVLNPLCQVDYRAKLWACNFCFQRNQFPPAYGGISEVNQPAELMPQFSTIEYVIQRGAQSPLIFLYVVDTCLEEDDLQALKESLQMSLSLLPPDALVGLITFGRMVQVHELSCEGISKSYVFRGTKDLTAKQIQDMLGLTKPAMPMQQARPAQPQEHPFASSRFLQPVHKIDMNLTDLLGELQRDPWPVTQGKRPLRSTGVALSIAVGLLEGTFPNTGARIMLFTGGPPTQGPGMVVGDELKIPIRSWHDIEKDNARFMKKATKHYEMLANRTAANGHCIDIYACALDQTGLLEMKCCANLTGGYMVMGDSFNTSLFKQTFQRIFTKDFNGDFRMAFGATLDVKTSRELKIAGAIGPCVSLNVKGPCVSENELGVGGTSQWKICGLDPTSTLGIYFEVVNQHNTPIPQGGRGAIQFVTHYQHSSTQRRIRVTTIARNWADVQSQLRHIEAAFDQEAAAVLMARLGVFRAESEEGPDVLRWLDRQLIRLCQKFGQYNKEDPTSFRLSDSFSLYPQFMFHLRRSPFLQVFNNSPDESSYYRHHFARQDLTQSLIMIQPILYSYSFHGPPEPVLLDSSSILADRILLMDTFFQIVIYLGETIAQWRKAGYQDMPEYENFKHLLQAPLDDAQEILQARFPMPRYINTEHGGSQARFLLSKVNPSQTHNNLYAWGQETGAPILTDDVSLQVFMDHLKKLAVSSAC

| Target | thermal stability z-score (lipoamide; [1]) | thermal stability z-score (lipoamide; arsenate co-treatment: none) | thermal stability z-score (potassium arsenate) |
| --- | --- | --- | --- |
| SDHAF4 (UniProt Q5VUM1) | 0.0401 | -0.258 | -1.53 |
| SDHB (UniProt P21912) | -0.24 | -0.16 | -0.681 |
| SDR16C5 (UniProt Q8N3Y7) | -0.26 | -0.252 | 0.0129 |
| SDR39U1 (UniProt Q9NRG7) | 0.717 | 0.0552 | 0.471 |
| SDSL (UniProt Q96GA7) | 0.0811 | 1.46 | -0.745 |
| SEC11A (UniProt P67812) | -2.78 | -1.58 | 0.475 |
| SEC11C (UniProt Q9BY50) | -0.973 | -0.842 | 0.222 |
| SEC13 (UniProt P55735) | 0.378 | 0.46 | 0.729 |
| SEC14L1 (UniProt Q92503) | -0.149 | -0.0215 | -0.169 |
| SEC16A (UniProt O15027) | 0.237 | 1.39 | 0.285 |
| SEC22A (UniProt Q96IW7) | 0.0383 | -0.0317 | 0.684 |
| SEC22B (UniProt O75396) | -0.614 | -0.0571 | -0.0449 |
| SEC23A (UniProt Q15436) | -0.106 | 0.228 | -0.0157 |
| SEC23B (UniProt Q15437) | 1.19 | 0.766 | 0.645 |
| SEC23IP (UniProt Q9Y6Y8) | -0.784 | -1.16 | 1.54 |
| SEC24A (UniProt O95486) | -0.232 | -0.0421 | 0.178 |
| SEC24B (UniProt O95487) | -0.766 | -0.328 | 0.116 |
| SEC24C (UniProt P53992) | 0.0998 | 0.0631 | 0.38 |
| SEC24D (UniProt O94855) | 0.087 | -0.238 | -0.578 |
| SEC31A (UniProt O94979) | 0.00351 | -0.104 | 0.497 |
| SEC61A1 (UniProt P61619) | 1.11 | 0.235 | 0.55 |
| SEC61B (UniProt P60468) | 0.911 | 0.44 | 0.265 |
| SEC62 (UniProt Q99442) | 0.39 | 0.266 | -0.75 |
| SEC63 (UniProt Q9UGP8) | -1.11 | -0.484 | -0.767 |

| Target | thermal stability z-score (lipoamide; [1]) | thermal stability z-score (lipoamide; arsenate co-treatment: none) | thermal stability z-score (potassium arsenate) |
| --- | --- | --- | --- |
| SEH1L (UniProt Q96EE3) | 0.886 | 0.611 | 0.803 |
| SEL1L (UniProt Q9UBV2) | -2.16 | -1.76 | 0.614 |
| SELENBP1 (UniProt Q13228) | 0.567 | 0.164 | 0.784 |
| SELK (UniProt Q9Y6D0) | 0.406 | -0.759 | 0.22 |
| SELO (UniProt Q9BVL4) | -0.214 | -0.211 | -0.536 |
| SEMA3B (UniProt Q13214) | -1.02 | -1.61 | 0.997 |
| SEMA3C (UniProt Q99985) | -0.0185 | -0.402 | -0.147 |
| SENP6 (UniProt Q9GZR1) | -0.0511 | -0.0676 | -0.18 |
| SEPHS1 (UniProt P49903) | 0.189 | 0.065 | 0.00514 |
| SERBP1 (UniProt Q8NC51) | 0.533 | 0.5 | -0.0206 |
| SERF1A (UniProt O75920) | -0.0837 | 0.743 | -0.297 |
| SERF2 (UniProt P84101) | 0.715 | 0.165 | -0.113 |
| SERINC1 (UniProt Q9NRX5) | 0.282 | -0.488 | 0.329 |
| SERINC3 (UniProt Q13530) | -0.42 | -0.641 | -0.788 |
| SERPINB1 (UniProt P30740) | 0.391 | 0.191 | 0.23 |
| SERPINB4 (UniProt P48594) | 0.303 | 0.197 | -0.0226 |
| SERPINB5 (UniProt P36952) | 0.571 | 0.206 | 0.0156 |
| SERPINB6 (UniProt P35237) | -0.206 | -0.157 | -1.01 |
| SERPINB8 (UniProt P50452) | 0.899 | 0.458 | -1.08 |
| SERPINH1 (UniProt P50454) | -3.31 | -2.2 | 0.567 |
| SERPINI1 (UniProt Q99574) | -0.495 | 0.0132 | 0.709 |
| SESN2 (UniProt P58004) | -0.134 | 0.162 | -0.132 |
| SESTD1 (UniProt Q86VW0) | 0.202 | 0.128 | 0.352 |
| SET (UniProt Q01105) | 0.154 | 0.00988 | -0.503 |

| Target | thermal stability z-score (lipoamide; [1]) | thermal stability z-score (lipoamide; arsenate co-treatment: none) | thermal stability z-score (potassium arsenate) |
| --- | --- | --- | --- |
| SETD1A (UniProt O15047) | 0.233 | -0.516 | -0.413 |
| SETD3 (UniProt Q86TU7) | -0.479 | -0.251 | 0.0633 |
| SETD7 (UniProt Q8WTS6) | -0.766 | 0.0448 | -0.402 |
| SETDB1 (UniProt Q15047) | -0.239 | -0.253 | -0.254 |
| SETMAR (UniProt Q53H47) | -0.298 | -0.25 | -0.122 |
| SETX (UniProt Q7Z333) | -0.122 | -0.0676 | -0.00223 |
| SEZ6L2 (UniProt Q6UXD5) | 0.143 | 2.4 | 3.82 |
| SF1 (UniProt Q15637) | 0.425 | 0.249 | 0.681 |
| SF3A1 (UniProt Q15459) | -0.152 | 0.106 | -1.3 |
| SF3A2 (UniProt Q15428) | -0.0843 | -0.43 | -0.0497 |
| SF3A3 (UniProt Q12874) | 0.351 | 0.639 | -0.503 |
| SF3B1 (UniProt O75533) | 2.46 | 0.661 | -0.873 |
| SF3B2 (UniProt Q13435) | 0.498 | 0.403 | -0.135 |
| SF3B3 (UniProt Q15393) | 1.49 | 0.828 | -0.681 |
| SF3B4 (UniProt Q15427) | 0.152 | -0.211 | -0.243 |
| SF3B6 (UniProt Q9Y3B4) | -0.787 | -0.165 | -0.667 |
| SFN (UniProt P31947) | 0.524 | 0.0759 | -0.012 |
| SFPQ (UniProt P23246) | 2.47 | 2.22 | 1.15 |
| SFR1 (UniProt Q86XK3) | -0.12 | -0.359 | 0.036 |
| SFXN1 (UniProt Q9H9B4) | 0.607 | 0.214 | 0.0559 |
| SFXN3 (UniProt Q9BWM7) | 0.507 | 0.279 | 0.16 |
| SFXN4 (UniProt Q6P4A7) | -1.11 | -0.872 | 0.207 |
| SGF29 (UniProt Q96ES7) | 0.571 | 0.347 | -1.03 |
